#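 Following 48 hours of exposure in 96-well plates, responses at five concentrations were used to interpolate endpoints linearly. GI50: concentration for 50% inhibition of growth.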 Activity calls are given as the source filed them. No stated cut-off is given here; in the data, active = GI50 up to about 1.1 µM and inactive = higher.
# What was measured:
# Assay in all cases: NCI tumour cell line growth inhibition, 48 h
# A549 = tested on: A549
# TK-10 = tested on: TK-10
# LOX IMVI = tested on: LOX IMVI
# SW-620 = tested on: SW-620
# SF-539 = tested on: SF-539
# EKVX = tested on: EKVX
# MOLT-4 = tested on: MOLT-4
# HCC 2998 = tested on: HCC 2998
# COLO 205 = tested on: COLO 205
# MDA-MB-435 = tested on: MDA-MB-435
# OVCAR-4 = tested on: OVCAR-4
# M14 = tested on: M14
# Malme-3M = tested on: Malme-3M
# KM12 = tested on: KM12
# SK-MEL-5 = tested on: SK-MEL-5
# UACC-257 = tested on: UACC-257
# SF-295 = tested on: SF-295
# CAKI-1 = tested on: CAKI-1
# MDA-N = tested on: MDA-N
# HT-29 = tested on: HT-29
# ACHN = tested on: ACHN
# SK-MEL-2 = tested on: SK-MEL-2
# MCF7 = tested on: MCF7
# HCT-15 = tested on: HCT-15
# OVCAR-3 = tested on: OVCAR-3
# SR = tested on: SR
# 786-0 = tested on: 786-0
# SF-268 = tested on: SF-268
# HL-60 = tested on: HL-60
# SK-MEL-28 = tested on: SK-MEL-28
# SN12C = tested on: SN12C
# UO-31 = tested on: UO-31
# A498 = tested on: A498
# UACC-62 = tested on: UACC-62
# K562 = tested on: K562
# BT-549 = tested on: BT-549
# NCI-H460 = tested on: NCI-H460
# NCI/ADR-RES = tested on: NCI/ADR-RES
# RPMI-8226 = tested on: RPMI-8226
# OVCAR-5 = tested on: OVCAR-5
# NCI-H23 = tested on: NCI-H23
# SK-OV-3 = tested on: SK-OV-3
# DU-145 = tested on: DU-145
# SNB-75 = tested on: SNB-75
# OVCAR-8 = tested on: OVCAR-8
# Hs-578T = tested on: Hs-578T
# HOP-92 = tested on: HOP-92
# U-251 = tested on: U-251
# RXF 393 = tested on: RXF 393
# NCI-H522 = tested on: NCI-H522
# T47D = tested on: T47D
# SNB-19 = tested on: SNB-19
# MDA-MB-231 = tested on: MDA-MB-231
# NCI-H226 = tested on: NCI-H226
# CCRF-CEM = tested on: CCRF-CEM
# HOP-62 = tested on: HOP-62
# PC-3 = tested on: PC-3
# HCT-116 = tested on: HCT-116
# IGROV-1 = tested on: IGROV-1
smiles,measurement,setting,value
O=c1[nH]/c(=C/c2ccc(OCc3ccccc3)cn2)c(=O)[nH]/c1=C/c1ccc(Cl)cc1,GI50,A549,> 84.9 µM (inactive)
same,GI50,TK-10,15.1 µM (inactive)
same,GI50,LOX IMVI,> 22.1 µM (inactive)
same,GI50,SW-620,1.55 µM (inactive)
same,GI50,SF-539,3.08 µM (inactive)
same,GI50,EKVX,> 100 µM (inactive)
same,GI50,MOLT-4,1.52 µM (inactive)
same,GI50,HCC 2998,2.52 µM (inactive)
same,GI50,COLO 205,11.9 µM (inactive)
same,GI50,MDA-MB-435,0.21 µM (active)
same,GI50,OVCAR-4,2.42 µM (inactive)
same,GI50,M14,1.87 µM (inactive)
same,GI50,Malme-3M,0.624 µM (active)
same,GI50,KM12,0.895 µM (active)
same,GI50,SK-MEL-5,1.01 µM (active)
same,GI50,UACC-257,1 µM (active)
same,GI50,SF-295,0.692 µM (active)
same,GI50,CAKI-1,0.45 µM (active)
same,GI50,MDA-N,0.215 µM (active)
same,GI50,HT-29,2.8 µM (inactive)
same,GI50,ACHN,4.24 µM (inactive)
same,GI50,SK-MEL-2,4.73 µM (inactive)
same,GI50,MCF7,0.546 µM (active)
same,GI50,HCT-15,0.469 µM
same,GI50,OVCAR-3,0.653 µM (active)
same,GI50,SR,0.301 µM (active)
same,GI50,786-0,1.83 µM (inactive)
same,GI50,SF-268,1.87 µM (inactive)
same,GI50,HL-60,0.726 µM (active)
same,GI50,SK-MEL-28,> 76.7 µM (inactive)
same,GI50,SN12C,48.3 µM (inactive)
same,GI50,UO-31,2.7 µM (inactive)
same,GI50,A498,0.7 µM (active)
same,GI50,UACC-62,1.94 µM (inactive)
same,GI50,K562,0.497 µM (active)
same,GI50,BT-549,0.344 µM (active)
same,GI50,NCI-H460,1.79 µM (inactive)
same,GI50,NCI/ADR-RES,5.37 µM (inactive)
same,GI50,RPMI-8226,3.81 µM (inactive)
same,GI50,OVCAR-5,> 100 µM (inactive)
same,GI50,NCI-H23,7.87 µM (inactive)
same,GI50,SK-OV-3,4.47 µM (inactive)
same,GI50,DU-145,> 23.9 µM (inactive)
same,GI50,SNB-75,1.86 µM (inactive)
same,GI50,OVCAR-8,> 100 µM (inactive)
same,GI50,Hs-578T,0.804 µM (active)
same,GI50,HOP-92,13.9 µM (inactive)
same,GI50,U-251,4.35 µM (inactive)
same,GI50,RXF 393,4.53 µM (inactive)
same,GI50,NCI-H522,0.723 µM (active)
same,GI50,T47D,> 100 µM (inactive)
same,GI50,SNB-19,5.55 µM (inactive)
same,GI50,MDA-MB-231,46.1 µM (inactive)
same,GI50,NCI-H226,35.1 µM (inactive)
same,GI50,CCRF-CEM,3.72 µM (inactive)
same,GI50,HOP-62,1.33 µM (inactive)
CC(C)(C)N1C(=O)[N-]/[N+](=C(/C(c2ccccc2)=[N+]2/[N-]C(=O)N(C(C)(C)C)C2=O)c2ccccc2)C1=O,GI50,A549,> 100 µM (inactive)
same,GI50,TK-10,> 100 µM (inactive)
same,GI50,LOX IMVI,> 100 µM (inactive)
same,GI50,SW-620,> 100 µM (inactive)
same,GI50,SF-539,> 100 µM (inactive)
same,GI50,MOLT-4,> 100 µM (inactive)
same,GI50,HCC 2998,> 100 µM (inactive)
same,GI50,COLO 205,> 100 µM (inactive)
same,GI50,MDA-MB-435,> 100 µM (inactive)
same,GI50,OVCAR-4,> 100 µM (inactive)
same,GI50,M14,> 100 µM (inactive)
same,GI50,PC-3,> 100 µM (inactive)
same,GI50,KM12,> 100 µM (inactive)
same,GI50,SK-MEL-5,> 100 µM (inactive)
same,GI50,UACC-257,> 100 µM (inactive)
same,GI50,SF-295,> 100 µM (inactive)
same,GI50,CAKI-1,> 100 µM (inactive)
same,GI50,MDA-N,> 100 µM (inactive)
same,GI50,ACHN,> 100 µM (inactive)
same,GI50,SK-MEL-2,> 100 µM (inactive)
same,GI50,MCF7,> 100 µM (inactive)
same,GI50,HCT-15,> 100 µM
same,GI50,OVCAR-3,> 100 µM (inactive)
same,GI50,786-0,> 100 µM (inactive)
same,GI50,SF-268,> 100 µM (inactive)
same,GI50,SK-MEL-28,> 100 µM (inactive)
same,GI50,SN12C,> 100 µM (inactive)
same,GI50,UO-31,> 100 µM (inactive)
same,GI50,A498,> 100 µM (inactive)
same,GI50,UACC-62,> 100 µM (inactive)
same,GI50,K562,> 100 µM (inactive)
same,GI50,BT-549,> 100 µM (inactive)
same,GI50,NCI-H460,> 100 µM (inactive)
same,GI50,RPMI-8226,> 100 µM (inactive)
same,GI50,OVCAR-5,> 100 µM (inactive)
same,GI50,NCI-H23,> 100 µM (inactive)
same,GI50,SK-OV-3,> 100 µM (inactive)
same,GI50,DU-145,> 100 µM (inactive)
same,GI50,SNB-75,> 100 µM (inactive)
same,GI50,HCT-116,> 100 µM (inactive)
same,GI50,Hs-578T,> 100 µM (inactive)
same,GI50,HOP-92,> 100 µM (inactive)
same,GI50,U-251,> 100 µM (inactive)
same,GI50,RXF 393,> 100 µM (inactive)
same,GI50,T47D,> 100 µM (inactive)
same,GI50,SNB-19,> 100 µM (inactive)
same,GI50,MDA-MB-231,> 100 µM (inactive)
same,GI50,CCRF-CEM,> 100 µM (inactive)
Cc1cc(-c2ccc[nH]2)on1,GI50,A549,> 100 µM (inactive)
same,GI50,TK-10,> 100 µM (inactive)
same,GI50,SW-620,> 100 µM (inactive)
same,GI50,EKVX,> 100 µM (inactive)
same,GI50,MOLT-4,> 100 µM (inactive)
same,GI50,HCC 2998,> 100 µM (inactive)
same,GI50,COLO 205,> 100 µM (inactive)
same,GI50,IGROV-1,> 100 µM (inactive)
same,GI50,MDA-MB-435,> 100 µM (inactive)
same,GI50,OVCAR-4,> 100 µM (inactive)
same,GI50,M14,> 100 µM (inactive)
same,GI50,PC-3,> 100 µM (inactive)
same,GI50,Malme-3M,> 100 µM (inactive)
same,GI50,KM12,> 100 µM (inactive)
same,GI50,SK-MEL-5,> 100 µM (inactive)
same,GI50,UACC-257,> 100 µM (inactive)
same,GI50,SF-295,> 100 µM (inactive)
same,GI50,CAKI-1,> 100 µM (inactive)
same,GI50,MDA-N,> 100 µM (inactive)
same,GI50,HT-29,> 100 µM (inactive)
same,GI50,ACHN,> 100 µM (inactive)
same,GI50,SK-MEL-2,> 100 µM (inactive)
same,GI50,MCF7,> 100 µM (inactive)
same,GI50,HCT-15,> 100 µM
same,GI50,OVCAR-3,> 100 µM (inactive)
same,GI50,786-0,> 100 µM (inactive)
same,GI50,SF-268,> 100 µM (inactive)
same,GI50,SK-MEL-28,> 100 µM (inactive)
same,GI50,UO-31,> 100 µM (inactive)
same,GI50,A498,> 100 µM (inactive)
same,GI50,UACC-62,> 100 µM (inactive)
same,GI50,K562,> 100 µM (inactive)
same,GI50,BT-549,> 100 µM (inactive)
same,GI50,NCI-H460,> 100 µM (inactive)
same,GI50,NCI/ADR-RES,> 100 µM (inactive)
same,GI50,RPMI-8226,> 100 µM (inactive)
same,GI50,OVCAR-5,> 100 µM (inactive)
same,GI50,NCI-H23,> 100 µM (inactive)
same,GI50,SK-OV-3,> 100 µM (inactive)
same,GI50,DU-145,> 100 µM (inactive)
same,GI50,SNB-75,> 100 µM (inactive)
same,GI50,OVCAR-8,> 100 µM (inactive)
same,GI50,HCT-116,> 100 µM (inactive)
same,GI50,Hs-578T,> 100 µM (inactive)
same,GI50,HOP-92,> 100 µM (inactive)
same,GI50,U-251,> 100 µM (inactive)
same,GI50,RXF 393,> 100 µM (inactive)
same,GI50,NCI-H522,> 100 µM (inactive)
same,GI50,SNB-19,> 100 µM (inactive)
same,GI50,MDA-MB-231,> 100 µM (inactive)
same,GI50,CCRF-CEM,> 100 µM (inactive)
same,GI50,HOP-62,> 100 µM (inactive)
